Results reported in the NIST ThermoML archive (doi:10.1016/j.jct.2015.09.029).
± gives the expanded uncertainty stated by the source.

Test: mn = molality of the nth substance listed, in mol/kg
Settings: 100 kPa, Liquid; for viscosity: Capillary tube (Ostwald / Ubbelohde) method; for speed of sound: Frequency=2 MHz, Linear variable-path acoustic interferometer; for mass density: Vibrating tube method

CCCC[P+](CCCC)(CCCC)CCCC.[Cl-] [tetrabutylphosphonium chloride] + O
Settings	mass density [kg/m3]	speed of sound [m/s]	viscosity [mPa·s]
298.15 K, m1 = 0.0249	996.83 ± 0.11	1506.4 ± 4.3	0.9234 ± 0.019
298.15 K, m1 = 0.0773	996.44 ± 0.11	1520 ± 4.3	0.9925 ± 0.021
298.15 K, m1 = 0.1592	995.93 ± 0.11	1541.6 ± 4.3	1.101 ± 0.023
298.15 K, m1 = 0.2659	995.41 ± 0.12	1567.7 ± 4.3	1.241 ± 0.026
298.15 K, m1 = 0.3842	994.99 ± 0.14	1593.7 ± 4.3	1.397 ± 0.029
298.15 K, m1 = 0.4509	994.8 ± 0.15	1607.4 ± 4.3	1.486 ± 0.031
298.15 K, m1 = 0.504	994.67 ± 0.16	1617.5 ± 4.3	1.556 ± 0.033
298.15 K, m1 = 0.5771	994.5 ± 0.18	1630.3 ± 4.4	1.652 ± 0.035
303.15 K, m1 = 0.0249	995.41 ± 0.11	1518.2 ± 4.3	0.8256 ± 0.017
303.15 K, m1 = 0.0773	994.97 ± 0.11	1532.4 ± 4.3	0.8843 ± 0.019
303.15 K, m1 = 0.1592	994.37 ± 0.11	1551.9 ± 4.3	0.9761 ± 0.021
303.15 K, m1 = 0.2659	993.73 ± 0.12	1575.2 ± 4.3	1.095 ± 0.023
303.15 K, m1 = 0.3842	993.17 ± 0.14	1598.2 ± 4.3	1.228 ± 0.026
303.15 K, m1 = 0.4509	992.9 ± 0.15	1610.1 ± 4.3	1.302 ± 0.028
303.15 K, m1 = 0.504	992.7 ± 0.16	1619.5 ± 4.3	1.362 ± 0.029
303.15 K, m1 = 0.5771	992.42 ± 0.18	1633.2 ± 4.4	1.444 ± 0.031
308.15 K, m1 = 0.0295	993.74 ± 0.11	1529.8 ± 4.3	0.7476 ± 0.016
308.15 K, m1 = 0.0842	993.23 ± 0.11	1541.2 ± 4.3	0.7998 ± 0.017
308.15 K, m1 = 0.1722	992.52 ± 0.11	1559.9 ± 4.3	0.8836 ± 0.019
308.15 K, m1 = 0.2979	991.68 ± 0.13	1585.8 ± 4.3	1.004 ± 0.021
308.15 K, m1 = 0.3554	991.35 ± 0.14	1595.6 ± 4.3	1.058 ± 0.022
308.15 K, m1 = 0.4266	990.98 ± 0.15	1607.8 ± 4.3	1.126 ± 0.024
308.15 K, m1 = 0.4508	990.86 ± 0.15	1611.9 ± 4.3	1.149 ± 0.024
308.15 K, m1 = 0.5619	990.34 ± 0.18	1628.9 ± 4.4	1.255 ± 0.027
313.15 K, m1 = 0.0295	991.9 ± 0.11	1537.3 ± 4.3	0.6773 ± 0.014
313.15 K, m1 = 0.0842	991.36 ± 0.11	1547.8 ± 4.3	0.722 ± 0.015
313.15 K, m1 = 0.1722	990.57 ± 0.12	1566.5 ± 4.3	0.7937 ± 0.017
313.15 K, m1 = 0.2979	989.61 ± 0.13	1588.4 ± 4.3	0.8964 ± 0.019
313.15 K, m1 = 0.3554	989.21 ± 0.14	1597.3 ± 4.3	0.9432 ± 0.02
313.15 K, m1 = 0.4266	988.76 ± 0.15	1607.8 ± 4.3	1.001 ± 0.021
313.15 K, m1 = 0.4508	988.61 ± 0.15	1611.4 ± 4.3	1.021 ± 0.022
313.15 K, m1 = 0.5619	987.95 ± 0.18	1627.3 ± 4.4	1.112 ± 0.024

CCCC[P+](C)(CCCC)CCCC.COS(=O)(=O)[O-] [tributylmethylphosphonium methyl sulfate] + O
Settings	mass density [kg/m3]	speed of sound [m/s]	viscosity [mPa·s]
298.15 K, m1 = 0.0282	997.65 ± 0.11	1504.7 ± 4.3	0.9199 ± 0.019
298.15 K, m1 = 0.0438	997.98 ± 0.11	1507.9 ± 4.3	0.9362 ± 0.02
298.15 K, m1 = 0.0564	998.25 ± 0.11	1510.3 ± 4.3	0.9494 ± 0.02
298.15 K, m1 = 0.0658	998.45 ± 0.11	1512.1 ± 4.3	0.9592 ± 0.02
298.15 K, m1 = 0.0847	998.86 ± 0.11	1515.5 ± 4.3	0.9789 ± 0.021
298.15 K, m1 = 0.113	999.46 ± 0.11	1520.9 ± 4.3	1.009 ± 0.021
298.15 K, m1 = 0.174	1000.77 ± 0.12	1533.3 ± 4.3	1.073 ± 0.023
298.15 K, m1 = 0.2336	1002.05 ± 0.12	1545.1 ± 4.3	1.135 ± 0.024
298.15 K, m1 = 0.2813	1003.07 ± 0.13	1554.3 ± 4.3	1.185 ± 0.025
303.15 K, m1 = 0.0282	996.22 ± 0.11	1517.7 ± 4.3	0.8225 ± 0.017
303.15 K, m1 = 0.0438	996.54 ± 0.11	1521.6 ± 4.3	0.8362 ± 0.017
303.15 K, m1 = 0.0564	996.8 ± 0.11	1524.6 ± 4.3	0.8473 ± 0.018
303.15 K, m1 = 0.0658	996.99 ± 0.11	1526.7 ± 4.3	0.8555 ± 0.018
303.15 K, m1 = 0.0847	997.38 ± 0.11	1530.7 ± 4.3	0.8722 ± 0.018
303.15 K, m1 = 0.113	997.96 ± 0.11	1536.2 ± 4.3	0.8971 ± 0.019
303.15 K, m1 = 0.174	999.21 ± 0.12	1547.8 ± 4.3	0.951 ± 0.02
303.15 K, m1 = 0.2336	1000.44 ± 0.12	1558.6 ± 4.3	1.004 ± 0.021
303.15 K, m1 = 0.2813	1001.42 ± 0.13	1566.7 ± 4.3	1.046 ± 0.022
308.15 K, m1 = 0.0282	994.58 ± 0.11	1527.2 ± 4.3	0.7395 ± 0.015
308.15 K, m1 = 0.0438	994.89 ± 0.11	1530.9 ± 4.3	0.7505 ± 0.016
308.15 K, m1 = 0.0564	995.14 ± 0.11	1533.7 ± 4.3	0.7595 ± 0.016
308.15 K, m1 = 0.0658	995.32 ± 0.11	1535.9 ± 4.3	0.7662 ± 0.016
308.15 K, m1 = 0.0847	995.7 ± 0.11	1539.9 ± 4.3	0.7796 ± 0.016
308.15 K, m1 = 0.113	996.25 ± 0.11	1545.9 ± 4.3	0.7997 ± 0.017
308.15 K, m1 = 0.174	997.45 ± 0.12	1557.5 ± 4.3	0.8432 ± 0.018
308.15 K, m1 = 0.2336	998.62 ± 0.12	1568.4 ± 4.3	0.8857 ± 0.019
308.15 K, m1 = 0.2813	999.56 ± 0.13	1576.3 ± 4.3	0.9199 ± 0.019
313.15 K, m1 = 0.0282	992.74 ± 0.11	1536.3 ± 4.3	0.6725 ± 0.014
313.15 K, m1 = 0.0438	993.04 ± 0.11	1540 ± 4.3	0.6832 ± 0.014
313.15 K, m1 = 0.0564	993.27 ± 0.11	1542.7 ± 4.3	0.6919 ± 0.015
313.15 K, m1 = 0.0658	993.45 ± 0.11	1544.8 ± 4.3	0.6983 ± 0.015
313.15 K, m1 = 0.0847	993.81 ± 0.11	1548.8 ± 4.3	0.7113 ± 0.015
313.15 K, m1 = 0.113	994.34 ± 0.11	1554.2 ± 4.3	0.7308 ± 0.015
313.15 K, m1 = 0.174	995.49 ± 0.12	1564.7 ± 4.3	0.7728 ± 0.016
313.15 K, m1 = 0.2336	996.62 ± 0.12	1572 ± 4.3	0.814 ± 0.017
313.15 K, m1 = 0.2813	997.52 ± 0.13	1578 ± 4.3	0.847 ± 0.018
